Experimental data from patent US20070098665A1, “Effects of skin surface temperature on the epidermal permeability barrier homeostasis” (Shiseido Company, Ltd., priority 2005, published 2007).

What was measured:
hairless mice skin [1] = assay: Barrier recovery (TEWL) after tape stripping with topical application of reagent; format: in vivo, hairless mice (HR-1); details: for effect on barrier recovery (percent recovery of TEWL): topical, 100 μl aqueous solution containing 1 μM of reagent immediately after tape stripping, TEWL at 1, 3 and 6 hours, vs water control, FIG. 3
Experimental: All experiments were performed on 7-10-week old male hairless mice (HR-1, Hoshino, Japan). All procedures for measuring of skin barrier function, disrupting the barrier and applying the sample were carried out under anesthesia. All experiments were approved by the Animal Research Committee of the Shiseido Research Center in accordance with the National Research Council Guide (National Research Council 1996). Human skin experiments were carried out on the inner forearm of healthy males who gave their informed consent. 4 alpha-phorbol 12,13-[…] (4 alpha-PDD) and Rutenium-Red were purchased from Sigma (Sigma, St.Louis, Mich. USA). Capsaicin, capsazepine, and 2-aminoethoxydiphenyl borate (2-APB) were purchased from Tocris (TOCRIS, Bristol, UK). Camphor was purchased Wako (Wako, Osaka, Japan). Capsaicin is an agonist of TRPV1 and capsazepine is an antagonist of TRPV1 (Caterina et al. 1997). Both 2-APB and camphor are activator of TRPV3 (Chung et al. 2003)(Moquich et al. 2005). 4 alpha-PDD is an activator of TRPV4 and Rutenium-Red is a blocker of TRPV4 (Watanabe et al. 2002).
(§1) Permeability barrier function was evaluated by measurement of transepidermal water loss (TEWL) with an electric water analyzer, as described previously (Denda et al. 1998). For barrier recovery experiments, both sides of flank skin were treated with repeated tape stripping procedure until the TEWL reached 7-10 mg per cm^2 per h, as described previously (Denda et al. 1998). Immediately after barrier disruption, 100 μl of an aqueous solution containing 1 μM of reagent or water alone (control) was applied to the treated area. […] The areas were covered with plastic membranes for 15 min and then the membranes were removed. Two points in one side of flank were measured and 4-8 mice were used to evaluate the effects of each treatment. We always disrupted the barrier within 7:00 AM to 8:00 AM and carried out the following measurements of the barrier repair to avoid the deviation of the repair rate due to the influence of circadian rhythm (Denda et al. 2000). TEWL was then measured over the same sites at 1, 3 and 6 hours after barrier disruption. The barrier recovery results are expressed as percent of recovery, because of variations from day to day in the extent of barrier disruption. In each animal, the percentage of recovery was calculated by the following formula: (TEWL immediately after barrier disruption−TEWL at indicated time point)/(TEWL immediately after barrier disruption−baseline TEWL)×100%. All experiments were performed on 7 to 10-week-old male hairless mice (HR-1, Hoshino, Japan). All procedures of the measurement of skin barrier function, disruption of the barrier and application of test sample were carried out under anesthesia.
The results are expressed as the mean ± SD. Statistical differences between two groups were determined by a two-tailed Student's t-test. In the case of more than 2 groups, differences were determined by ANOVA test (Fisher's protected least significant difference).

hairless mice skin [2] = assay: Barrier recovery (TEWL) after tape stripping with applied heat plus topical reagent; format: in vivo, hairless mice (HR-1); details: topical application, FIG. 4
Experimental: as §1, with “We always disrupted the barrier within 7:00 AM to 8:00 AM and carried out the following measurements of the barrier repair to avoid the deviation of the repair rate due to the influence of circadian rhythm (Denda et al. 2000).” left out, “All experiments were performed on 7 to 10-week-old male hairless mice (HR-1, Hoshino, Japan). All procedures of the measurement of skin barrier function, disruption of the barrier and application of test sample were carried out under anesthesia.” left out
The results are expressed as the mean ± SD. Statistical differences between two groups were determined by a two-tailed Student's t-test. […]

Compound	effect on barrier recovery (percent recovery of TEWL) (hairless mice skin [1])	effect on the delay of barrier recovery after capsaicin application (hairless mice skin [1]; topical application on hairless mice skin after tape stripping, as worded in the summary b8)	effect on the delay of the barrier recovery by heat 42° C. (hairless mice skin [2]; heat 42° C. applied for one hour after tape stripping)	effect on the acceleration of the barrier recovery by heat 36° C. (hairless mice skin [2]; heat 36° C. applied for one hour after tape stripping)
NCCOB(c1ccccc1)c1ccccc1 [2-aminoethoxydiphenyl borate]	did not affect the barrier recovery rate	–	–	–
CCCCCCCCCC(=O)O[C@@H]1[C@@H](C)[C@@]2(O)[C@@H](C=C(CO)C[C@@]3(O)C(=O)C(C)=C[C@@H]23)[C@@H]2C(C)(C)[C@]12OC(=O)CCCCCCCCC [4 alpha-PDD, 4 alpha-phorbol 12,13-didecanoate]	accelerated the barrier recovery	–	–	–
Oc1cc2c(cc1O)CN(C(=S)NCCc1ccc(Cl)cc1)CCC2 [capsazepine]	accelerated the barrier repair	the delay was blocked	blocked the delay of the barrier recovery by heat 42 °C	–
COc1cc(CNC(=O)CCCC/C=C/C(C)C)ccc1O [capsaicin, Capsaicin]	delayed the barrier recovery	–	–	–
Rutenium-Red	delayed the recovery	–	–	blocked the acceleration of the barrier recovery by heat 36 °C
CC12CCC(CC1=O)C2(C)C (stereo not drawn) [camphor, Camphor]	did not affect the barrier recovery rate	–	–	–
